Experiments:
[1] = target: T1, human TRPM8; experiment: TRPM8 Protocol-FLIPR Assay (intracellular Ca2+); assay type: cell-based; settings: for TRPM8 Time Course Activity 5 min % of WS5 / TRPM8 Time Course Activity 10 min % of WS5: dose 12.2 nM, vs 30 uM WS-5
T1 construct: Receptor Activity TRPM8; Receptor Activity TRPM8; other: test compound at 0.001%; relative to WS5 control (30 microMolar); HEK 293 cells; other: test compound at 0.004%; other: test compound at 5.2E−5%; relative to WS5 control
Method: To determine whether TRPM8 is activated, the intracellular calcium ion (Ca^2+) level was measured from transfected cells with the TRPM8 receptor sequence (SEQ ID NO: 3). HEK-293 (human embryonic kidney) cells stably transfected with human TRPM8 were grown in 15 ml growth medium (high glucose DMEM (Dulbecco's Modification of Eagle's Medium) supplemented with 10% FBS (fetal bovine serum), 100 ug/ml penicillin/streptomycin, 5 μg/ml blasticindin, and 100 μg/ml zeocin) in a 75 cm^2 flask for 3 days at 37° C. in a mammalian cell culture incubator set at 5% CO2 Cells were detached with addition of 2 ml of trypsin-EDTA buffer (GIBCO® 25200, Invitrogen, Grand Island, N.Y.) for about 2-3 min. Trypsin was inactivated by addition of 8 ml growth medium. Cells were transferred to a 50 ml tube and centrifuged at 850 rpm for 3 minutes to remove medium. After centrifugation, a pellet of cells was formed in the bottom of the tube separating them from the supernatant solution. The supernatant was discarded and the cell pellet was suspended in 1 ml of fresh growth medium to which 5 μl (12.5 μg) of Fluo-4 AM (Molecular Probes, Inc., Eugene, Oreg.) calcium indicator was added and incubated for 30 min with gentle shaking. Fluo-4 AM is a fluorescent dye used for quantifying cellular Ca^2+ concentrations in the 100 nM to 1 microM range. At the end of 30 minutes, 45 ml of assay buffer (1× HBSS (Hank's Balanced Salt Solution), 20 mM HEPES (4-(2-Hydroxyethyl)-1-piperazineethanesulfonic acid)) was added to wash cells and the resulting mixture was then centrifuged at 850 rpm for 3 minutes to remove excess buffer and Fluo-4 AM calcium indicator.
The pelleted cells were re-suspended in 10 ml assay buffer and 90 μl aliquots (˜50,000 cells) per well delivered to a 96-well assay plate containing 10 μl of test compounds (1 mM in assay buffer, […]) or buffer control and incubated at room temperature for 30 minutes. After 30 minutes, a plate was placed into a fluorometric imaging plate reader (FLIPR384 from Molecular Devices, Sunnyvale, Calif.) and basal fluorescence recorded (excitation wave length 488 nm and emission wave length 510 nm). Then 20 μl of […] of TRPM8 agonist WS5 coolant in the assay buffer was added and fluorescence recorded. For determining the direct effect of test compounds on TRPM8, fluorescence was measured immediately after addition of each compound (TABLES 2 and 3). Additional discussion of the FLIPR method can be found in Smart et al., Characterization using FLIPR of human vanilloid VR1 receptor pharmacology, European Journal of Pharmacology 417, 51-58 (2001) and Liu et al., Development and validation of a platelet calcium flux assay using a fluorescent imaging plate reader, Analytical Biochemistry 357, 216-224 (2006).
TRPM8 activation was determined by measuring intracellular calcium ion (Ca^2+) level from transfected cells with the TRPM8 receptor gene, as described in EXAMPLE 1, the results of which are shown in TABLES 4 and 5.

[2] = Sensation reported by panelists; assay type: in vivo; settings: perceived sensation, in words

EC50 ([1]; 3 min) [nM] | TRPM8 Time Course Activity 5 min % of WS5 ([1]; 5 min) [%] | TRPM8 Time Course Activity 10 min % of WS5 ([1]; 10 min) [%] | EC50 ([1]; 5 min) [nM] | EC50 ([1]; 10 min) [nM] | SMILES | sensation (cooling, warming, burning) [2]
1.48 | 103.8 | 115.5 | – | – | CC(C)[C@@H]1CC[C@@H](C)C[C@H]1C(=O)NCC(NC(=O)[C@@H](C)N)c1ccccc1 (single isomer, unassigned) [Compound 28 fraction 1] | intense cooling
55.5 | 65.7 | 71.1 | 45.7 | 37.4 | CC(C)[C@@H]1CC[C@@H](C)C[C@H]1C(=O)NCC(NC(=O)[C@@H](C)N)c1ccccc1 (single isomer, unassigned) [Compound 28 fraction 2] | did not provide a cooling response
